# Reference: US5242946A, “Treating herpes Viral infections” (Bio-Mega, Inc., priority 1988, dated 1993)
# Experiments:
# [1] = target: HSV-1 ribonucleotide reductase (Human alphaherpesvirus 1 strain 17, UniProt P08543+P10224); assay: Inhibition of HSV-1 ribonucleotide reductase (reduction of CDP); format: biochemical, herpes simplex virus (type 1), strain F; conditions: for selective inhibition of the viral ribonucleotide reductase over the cellular ribonucleotide reductase: HSV-1 versus hamster 96-V-2(600) ribonucleotide reductase
# [2] = target: T1, Hamster 96-V-2(600) ribonucleotide reductase (Cricetulus griseus, UniProt G3I2K8+G3I3B7); assay: Inhibition of hamster 96-V-2(600) ribonucleotide reductase (reduction of CDP); format: biochemical, Chinese hamster; conditions: partially purified enzyme 40 μg, in the presence of adenosine triphosphate (4 mM) and magnesium chloride (11.5 mM)
# T1 construct: overproducing strain; endogenous in cells; host or cells: 96-V-2(600), overproducing strain of a Chinese hamster lung cell line (partially purified)
# Description: Hamster 96-V-2(600) ribonucleotide reductase (partially purified) was obtained from an overproducting strain of a Chinese hamster lung cell line as described by W. H. Lewis and P. R. Scinivasan, Mol. Cell Biol., 3, 1053 (1983).
# Samples of the HSV-1 ribonucleotide reductase (65 μg with a specific activity of 26 units per mg) were mixed with increasing concentrations of the test compound, i.e. the naphthalene noted in the title of this example, in a series of tubes. Ribonucleotide reductase activity was assayed by monitoring the reduction of cytidine diphosphate (CDP) as described by Cohen et al., supra. The standard reaction mixture, in a final volume of 60 μl, contained: 50 mM, N-2-hydroxyethylpiperazine-N'-2-ethanesulfonic acid (pH 7.8); 4 mM NaF, 30 mM DL-dithiothreitol (DTT); 1 mM bacitracin, 54 μM CDP and 0.25 μCi of [^3 H]CDP. After 30 minutes of incubation at 37° C., the reaction was stopped by immersing the tube in boiling water for 4 minutes. The precipitate was removed by centrifugation. Nucleotides in the supernatant were converted to nucleosides by enzymatic hydrolysis. The deoxyribonucleosides were subsequently separated from the ribonucleosides by ascending polyethyleneimine-celulose chromatography. […] The results, shown in FIG. 1, are expressed as a percentage of the activity obtained in the controls.
# Chain of HSV-1 ribonucleotide reductase (P10224 whole entry): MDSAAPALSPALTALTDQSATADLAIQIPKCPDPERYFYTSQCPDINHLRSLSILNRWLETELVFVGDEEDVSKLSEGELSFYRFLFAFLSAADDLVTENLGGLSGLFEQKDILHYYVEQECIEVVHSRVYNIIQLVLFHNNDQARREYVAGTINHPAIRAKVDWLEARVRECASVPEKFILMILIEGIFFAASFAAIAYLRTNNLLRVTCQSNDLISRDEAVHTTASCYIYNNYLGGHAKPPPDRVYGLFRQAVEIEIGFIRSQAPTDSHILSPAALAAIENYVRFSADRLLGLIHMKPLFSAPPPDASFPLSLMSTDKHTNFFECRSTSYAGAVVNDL
# Chain of HSV-1 ribonucleotide reductase (P08543 whole entry): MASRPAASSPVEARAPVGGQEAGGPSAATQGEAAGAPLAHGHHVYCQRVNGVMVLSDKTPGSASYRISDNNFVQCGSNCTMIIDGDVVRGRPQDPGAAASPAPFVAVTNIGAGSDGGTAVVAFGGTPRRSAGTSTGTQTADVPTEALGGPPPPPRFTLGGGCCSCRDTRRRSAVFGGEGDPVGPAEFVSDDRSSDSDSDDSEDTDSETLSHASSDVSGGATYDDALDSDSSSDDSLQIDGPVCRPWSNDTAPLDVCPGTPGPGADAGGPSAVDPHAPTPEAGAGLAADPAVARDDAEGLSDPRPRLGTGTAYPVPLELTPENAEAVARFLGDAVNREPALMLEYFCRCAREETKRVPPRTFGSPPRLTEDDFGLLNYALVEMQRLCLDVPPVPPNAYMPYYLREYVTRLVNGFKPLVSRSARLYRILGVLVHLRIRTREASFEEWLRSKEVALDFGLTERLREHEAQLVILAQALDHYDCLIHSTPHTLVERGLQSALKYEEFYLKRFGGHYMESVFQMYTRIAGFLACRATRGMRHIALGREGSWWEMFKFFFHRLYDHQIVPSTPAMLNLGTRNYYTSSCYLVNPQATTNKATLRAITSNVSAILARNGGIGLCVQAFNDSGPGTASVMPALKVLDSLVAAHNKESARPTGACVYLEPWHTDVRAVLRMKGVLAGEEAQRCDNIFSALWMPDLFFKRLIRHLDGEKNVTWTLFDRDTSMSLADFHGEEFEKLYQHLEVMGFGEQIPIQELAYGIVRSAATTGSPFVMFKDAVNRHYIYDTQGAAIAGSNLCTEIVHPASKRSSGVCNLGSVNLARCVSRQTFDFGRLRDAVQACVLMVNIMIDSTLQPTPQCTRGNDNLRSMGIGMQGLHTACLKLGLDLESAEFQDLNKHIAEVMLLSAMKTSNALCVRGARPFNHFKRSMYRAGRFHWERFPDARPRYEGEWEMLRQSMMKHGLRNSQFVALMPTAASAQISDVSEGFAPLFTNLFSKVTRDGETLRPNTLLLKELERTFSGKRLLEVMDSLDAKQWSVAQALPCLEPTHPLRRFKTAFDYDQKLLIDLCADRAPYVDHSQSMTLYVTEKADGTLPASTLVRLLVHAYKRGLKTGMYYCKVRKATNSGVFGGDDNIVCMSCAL
# T1 sequence (G3I3B7 entry or part of it): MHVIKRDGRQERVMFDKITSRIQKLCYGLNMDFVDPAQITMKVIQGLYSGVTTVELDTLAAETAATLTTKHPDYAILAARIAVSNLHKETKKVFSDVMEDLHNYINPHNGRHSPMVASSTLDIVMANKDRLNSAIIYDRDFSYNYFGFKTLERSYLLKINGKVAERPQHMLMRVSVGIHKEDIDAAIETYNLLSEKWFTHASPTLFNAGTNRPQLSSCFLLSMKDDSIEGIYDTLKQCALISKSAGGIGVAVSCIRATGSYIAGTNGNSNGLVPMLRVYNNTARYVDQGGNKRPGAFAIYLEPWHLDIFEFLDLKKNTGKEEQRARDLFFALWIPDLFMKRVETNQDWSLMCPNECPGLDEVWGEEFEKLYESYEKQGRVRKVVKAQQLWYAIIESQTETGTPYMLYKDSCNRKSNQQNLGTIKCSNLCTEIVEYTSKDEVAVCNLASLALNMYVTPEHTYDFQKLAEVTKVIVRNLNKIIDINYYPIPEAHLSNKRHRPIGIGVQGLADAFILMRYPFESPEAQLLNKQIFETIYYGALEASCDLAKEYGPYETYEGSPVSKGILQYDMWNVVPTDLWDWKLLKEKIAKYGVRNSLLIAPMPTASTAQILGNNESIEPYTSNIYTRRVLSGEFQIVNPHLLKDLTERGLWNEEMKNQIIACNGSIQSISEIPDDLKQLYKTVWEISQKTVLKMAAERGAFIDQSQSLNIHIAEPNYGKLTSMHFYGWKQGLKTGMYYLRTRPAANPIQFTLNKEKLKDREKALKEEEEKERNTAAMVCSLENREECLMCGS
# T1 sequence (G3I2K8 entry or part of it): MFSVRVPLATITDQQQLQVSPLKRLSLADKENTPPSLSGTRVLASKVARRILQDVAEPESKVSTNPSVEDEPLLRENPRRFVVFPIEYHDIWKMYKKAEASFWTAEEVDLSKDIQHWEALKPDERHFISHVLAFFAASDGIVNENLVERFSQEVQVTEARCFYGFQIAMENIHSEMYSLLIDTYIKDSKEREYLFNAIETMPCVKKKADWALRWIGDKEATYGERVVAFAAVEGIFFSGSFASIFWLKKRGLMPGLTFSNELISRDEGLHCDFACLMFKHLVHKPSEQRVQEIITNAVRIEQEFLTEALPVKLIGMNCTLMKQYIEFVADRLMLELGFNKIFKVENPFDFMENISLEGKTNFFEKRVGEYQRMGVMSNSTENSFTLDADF
Compound,selective inhibition of the viral ribonucleotide reductase over the cellular ribonucleotide reductase [1],IC50 [2],"IC50 ([1]; partially purified enzyme 65 μg, 54 μM CDP, 30 minutes at 37° C., pH 7.8, read-out: IC50, fifty percent reduction of the HSV-1 ribonucleotide reductase activity)"
"COc1c(OC)c(OC(C)=O)c2ccccc2c1OC(C)=O [2,3-dimethoxy-1,4-1,4-naphthalenediol diacetate]",selective inhibition,–,–
"COc1c(OC)c(OC(C)=O)c2cc(Cl)ccc2c1OC(C)=O [6-Chloro-2,3-dimethoxy-1,4-naphthalenediol diacetate]",selective inhibition,> 250 µM,31 µM
"COc1ccc2c(OC(C)=O)c(OC)c(OC)c(OC(C)=O)c2c1 [2,3,6-trimetoxy-1,4-naphthalenediol diacetate]",selective inhibition,–,–
